Assay results reported in patent US20260166162A1, “CARBON CHAIN SUBSTANCE FOR REGULATING TRANSMEMBRANE TRANSPORT AND FLUIDITY OF CELL MEMBRANES, AND PREPARATION AND USE THEREOF” (priority 2022, published 2026).
Values joined by “and” are separate entries in the source; they are usually repeats but may differ in a detail not shown here. Equal entries are not always repeated. Where two headings read alike, the source gives them in different places.

Assays:
[1] = system: Methicillin-resistant Staphylococcus aureus; assay: Bacteriostasis/sterilization test (plate count); assay type: cell-based; conditions: 0.035 mM (Table 25)
[2] = system: Pseudomonas aeruginosa; assay: Bacteriostasis/sterilization test (plate count); assay type: cell-based
[3] = system: H7N9 pseudovirus; assay type: cell-based, Influenza pseudovirus H7N9-Fluc
[4] = system: Staphylococcus aureus; assay: Bacteriostasis/sterilization test (plate count); assay type: cell-based; conditions: for inhibition rate: concentration 0.035 mM; for IC50: read-out: half inhibition concentration
[5] = system: H5N1 pseudovirus; assay type: cell-based, Influenza pseudovirus H5N1-Fluc
[6] = system: SARS-CoV-2 pseudovirus; assay type: cell-based, SARS-CoV-2 pseudovirus B.1.526.2
[7] = system: Escherichia coli; assay: Bacteriostasis/sterilization test (plate count); assay type: cell-based
[8] = system: HIV pseudovirus; assay type: cell-based, HIV pseudovirus HIV18A-41
[9] = system: SARS-CoV-2 pseudovirus; parameters: species or system SARS-CoV-2 pseudovirus B.1.526.2
[10] = mouse, in vivo, po
[11] = system: Klebsiella pneumoniae; assay: Bacteriostasis/sterilization test (plate count); assay type: cell-based
[12] = system: Streptococcus pneumoniae; assay: Bacteriostasis/sterilization test (plate count); assay type: cell-based
[13] = system: VERO E6 cells; assay: Cytotoxicity (CCK-8) on VERO E6 cells; conditions: […] to 0.035 mM
[14] = system: HPV pseudovirus (HPV6-GFP); conditions: read-out: median neutralization concentration
[15] = system: Human hair follicle stem cells; assay: Human hair follicle stem cell proliferation (EdU); assay type: cell-based; conditions: 20 μM, 30 μM, 50 μM, 6 h
[16] = system: IL-1β; assay: Skin photoaging (UVB) in BALB/c nude mice, serum IL-1β (Example II-54, Table II-33); assay type: in vivo, mouse; conditions: mouse, in vivo
[17] = system: TNF-α; assay: LPS inflammatory aging in C57BL/6 mice, serum TNF-α (Example II-55, Table II-37); assay type: in vivo, mouse; conditions: 1 mM, 200 μl/time once a day for 30 days, LPS C57BL/6 mice
[18] = system: Hela cells; assay: Phagocytosis of adriamycin-loaded ferroferric oxide nanoparticles by Hela cells; assay type: cell-based; conditions: 5 nM for 1 h, then nanoparticles 4 h
Description: Hela cells (cell bank, Chinese Academy of Sciences) were seeded in a 6-well plate at a density of 1.0*10^5 and cultured for 24 h. The cells were treated with 5 nM Ser-EPA for 1 h and washed to remove Ser-EPA. Adriamycin-loaded ferroferric oxide nanoparticles were added followed by incubation for 4 h. Then, the cells were washed with PBS, stained with DAPI, and observed with confocal microscope.

[19] = system: IL-6; assay: LPS inflammatory aging in C57BL/6 mice, serum IL-6 (Example II-55, Table II-36); assay type: in vivo, mouse; conditions: mouse, in vivo
[20] = system: TNF-α; assay: Skin photoaging (UVB) in BALB/c nude mice, serum TNF-α (Example II-54, Table II-32); assay type: in vivo, mouse; conditions: UVB-irradiated BALB/c nude mice, 40 days
[21] = system: IL-6; assay: Skin photoaging (UVB) in BALB/c nude mice, serum IL-6 (Example II-54, Table II-34); assay type: in vivo, mouse; conditions: mouse, in vivo
[22] = system: IL-1β; assay: LPS inflammatory aging in C57BL/6 mice, serum IL-1β (Example II-55, Table II-35); assay type: in vivo, mouse; conditions: 1 mM, 200 μl/time, once a day, 30 days
[23] = system: Hela cells; assay: Cell membrane fluidity (Laurdan fluorescence recovery) in Hela cells; assay type: cell-based
[24] = system: Hela cells; assay: Cell migration (scratch) in Hela cells; assay type: cell-based; conditions: 24 h
Description: Hela cells in logarithmic growth phase (cell bank of Chinese Academy of Sciences) were trypsinized into a single cell suspension and inoculated into a 6-well culture plate. […] The next day 5 nM Thr-EPA was added by scratching with a 200-microliter gun tip against the horizontal line on the vertical back of the lid of the 6-well plate. 24 h later, samples were taken and photographed. […] Hela cells in logarithmic growth phase (cell bank of Chinese Academy of Sciences) were trypsinized into a single cell suspension and inoculated into a 6-well culture plate. […] The next day […] Thr-EPA was added by scratching with a 200-microliter gun tip against the horizontal line on the vertical back of the lid of the 6-well plate. 24 h later, samples were taken and photographed.

## CCC=CCC=CCC=CCC=CCC=CCC=CCCC(=O)NCCCCC(N)C(=O)O (stereo not drawn)
[1]
  Inhibition rate (%): 99%
[2]
  Inhibition rate (%): 99%
[3]
  Sterilization rate (%): 99%
[4]
  Inhibition rate (%): 99%
  inhibition rate: greater than 99%
  IC50: 9 µM
[5]
  Sterilization rate (%): 99%
[6]
  Sterilization rate (%): 99%
[7]
  Inhibition rate (%): 99%
[8]
  Sterilization rate (%): 99%
[9]
  membrane structure of the virus (TEM): broken
[10]
  liver, heart, kidney, bone/hepatobiliary function in blood versus control group: no difference
  physiological state, body weight, fur color, food consumption, mental state versus control group: not significantly different
[11]
  Inhibition rate (%): 99%
[12]
  Inhibition rate (%): 99%
[13]
  effect of the complex on cells: less than 10%

## CCC=CCC=CCC=CCC=CCC=CCC=CCCC(=O)OCC(N)C(=O)O (stereo not drawn)
[1]
  Inhibition rate (%): 99%
[2]; 0.035 mM (Table 25)
  Inhibition rate (%): 99%
[3]
  Sterilization rate (%): 99%
[14]
  IC50: 9 µM
[4]; 0.035 mM (Table 25)
  Inhibition rate (%): 99%
[4]
  inhibition rate: greater than 99%
  IC50: 9 µM
[5]
  Sterilization rate (%): 99%
[15]
  proliferation of human hair follicle stem cells: effectively promote the proliferation
[6]
  Sterilization rate (%): 99%
[7]; 0.035 mM (Table 25)
  Inhibition rate (%): 99%
[8]
  Sterilization rate (%): 99%
[11]; 0.035 mM (Table 25)
  Inhibition rate (%): 99%
[12]; 0.035 mM (Table 25)
  Inhibition rate (%): 99%

## CC/C=C\C/C=C\C/C=C\CCCCCCCC(=O)NCCCCC(N)C(=O)O (stereo not drawn) [Lys-ALA]
[15]
  proliferation of human hair follicle stem cells: effectively promote the proliferation

## CCC=CCC=CCC=CCC=CCC=CCCCC(=O)NC(CO)C(=O)O (stereo not drawn) [Ser-EPA, Serine-EPA]
[16]
  IL-1β: 57 pg/mL and 61 pg/mL and 54 pg/mL
[17]
  TNF-α: 48 pg/mL
[18]
  phagocytosis of nanoparticles by treated cells: significantly inhibited
[19]
  IL-6: 47 pg/mL
[20]; 30 μM smeared
  TNF-α: 54 pg/mL
[20]; 50 μM smeared
  TNF-α: 49 pg/mL
[20]; 100 μM smeared
  TNF-α: 44 pg/mL
[21]
  IL-6: 41 pg/mL and 38 pg/mL and 39 pg/mL
[22]
  IL-1β: 48 pg/mL
[23]; 2 nM, 20 s
  Fluorescence recovery rate %: 63.44%
[23]; 2 nM, 40 s
  Fluorescence recovery rate %: 65.36%
[23]; 2 nM, 60 s
  Fluorescence recovery rate %: 65.21%
[23]; 2 nM, 80 s
  Fluorescence recovery rate %: 66.35%
[23]; 5 nM, 20 s
  Fluorescence recovery rate %: 64.73%
[23]; 5 nM, 40 s
  Fluorescence recovery rate %: 64.59%
[23]; 5 nM, 60 s
  Fluorescence recovery rate %: 65.66%
[23]; 5 nM, 80 s
  Fluorescence recovery rate %: 67.97%
[23]; 10 nM, 20 s
  Fluorescence recovery rate %: 64.66%
[23]; 10 nM, 40 s
  Fluorescence recovery rate %: 65.11%
[23]; 10 nM, 60 s
  Fluorescence recovery rate %: 65.24%
[23]; 10 nM, 80 s
  Fluorescence recovery rate %: 66.83%
[23]; 50 nM, 20 s
  Fluorescence recovery rate %: 62.84%
[23]; 50 nM, 40 s
  Fluorescence recovery rate %: 62.94%
[23]; 50 nM, 60 s
  Fluorescence recovery rate %: 63.04%
[23]; 50 nM, 80 s
  Fluorescence recovery rate %: 64.54%
[23]; 50 μM, 20 s
  Fluorescence recovery rate %: 64.33%
[23]; 50 μM, 40 s
  Fluorescence recovery rate %: 72.49%
[23]; 50 μM, 60 s
  Fluorescence recovery rate %: 73.77%
[23]; 50 μM, 80 s
  Fluorescence recovery rate %: 81.40%
[23]; 100 μM, 20 s
  Fluorescence recovery rate %: 65.72%
[23]; 100 μM, 40 s
  Fluorescence recovery rate %: 72.99%
[23]; 100 μM, 60 s
  Fluorescence recovery rate %: 74.34%
[23]; 100 μM, 80 s
  Fluorescence recovery rate %: 80.39%

## CCC=CCC=CCC=CCC=CCC=CCCCC(=O)OC(C)C(N)C(=O)O (stereo not drawn) [Thr-EPA]
[24]; 5 nM
  cell migration: inhibited cell migration
[24]; 50 µM
  cell migration: promoted cell migration
